Among the data in patent US10899747B2, “Biaryl piperidine amide compounds and methods of use thereof” (Athenex, Inc., priority 2017, dated 2021) are IC50 values, retold here.

A value given as a limit tells only on which side of the number the result lay.

As usually defined, the IC50 is the midpoint of a concentration-inhibition curve. Read a high IC50 as weaker potency in that assay.

The assay relates to IL-2. Briefly: PHA-IL2 (cell activation and cytokine analysis). In kind it is cell-based. To be noted: 50% inhibition concentration class. How it is done: Cells to be tested may include, but are not limited to, a) Jurkat (a transformed human T cell leukemia), b) whole blood isolated from human or rodent sources, c) peripheral blood mononuclear cells (PBMC) freshly isolated from human or rodent whole blood, or d) purified fractions of PBMC (e.g., CD4 T cells). Cells are plated in 96-well plates at a final density of 1.0-2.0×10^6 cells/ml in 150 ul of assay medium (RPMI+0.5% fetal calf serum). Test compounds are included at a final concentration of ≤20 uM and generally pre-incubated with cells for 30 minutes prior to stimulation. An appropriate stimulus is added, including but not limited to, a) phytohemagglutinin (PHA), b) phorbol myristate acetate (PMA) and ionomycin, or c) stimulatory antibodies to the T cell receptor (TCR) complex (e.g., anti-CD3ε) and CD28. Cell cultures are stimulated for 24-48 hours in a humidified incubator (37 degrees C./5% CO2). A fraction of the culture supernatant is than harvested from each well and assayed for the presence of appropriate cytokine using standard ELISA. Cytokines to be analyzed may include IL-2, IL-4, IL-10, IL-17, IL-22, IFNγ, and/or TNFα. If required, the number of cytokine producing cells can be determined using intracellular staining and flow cytometry. […]
`O=C(COc1ccccc1-c1ccccc1)N1CCC(CCc2cc(C(F)(F)F)cc(C(F)(F)F)c2)CC1` [Compound 117] had an IC50 of less than 1 µM.
`O=C(COc1ccccc1-c1ccccc1)N1CCC(CCc2ccc(F)c(F)c2)CC1` [Compound 120]: the IC50 is less than 1 µM.
The figure for `COc1ccccc1CCC1CCN(C(=O)COc2ccccc2-c2ccccc2)CC1` [Compound 126] is 1 to 10 µM; for `CC(Oc1ccccc1-c1ccccc1)C(=O)N1CCC(CCc2ccc3c(c2)OCO3)CC1` (stereo not shown) [Compound 153] it is 10 to 50 µM; for `CCCC(Oc1ccccc1-c1ccccc1)C(=O)N1CCC(CCc2ccc3c(c2)OCO3)CC1` (stereo not shown) [Compound 154] it is 10 to 50 µM.
The compound `Cc1ccccc1-c1ccccc1OCC(=O)N1CCC(CCc2ccc3c(c2)OCO3)CC1` [Compound 155] had an IC50 of 1 to 10 µM.
Next, `CCc1ccc(-c2ccccc2OCC(=O)N2CCC(CCc3ccc4c(c3)OCO4)CC2)cc1` [Compound 156]: 1 to 10 µM.
The figure for `O=C(O)c1ccc(-c2ccccc2OCC(=O)N2CCC(CCc3ccc4c(c3)OCO4)CC2)cc1` [Compound 157] is 10 to 50 µM; for `O=C(O)c1cccc(-c2ccccc2OCC(=O)N2CCC(CCc3ccc4c(c3)OCO4)CC2)c1` [Compound 158] it is 10 to 50 µM.
Next, `CCOC(=O)c1cccc(-c2ccccc2OCC(=O)N2CCC(CCc3ccc4c(c3)OCO4)CC2)c1` [Compound 159]: 1 to 10 µM.
`O=C(COc1ccccc1-c1cccc(O)c1)N1CCC(CCc2ccc3c(c2)OCO3)CC1` [Compound 160]: the IC50 lay in the range of 1 to 10 µM.
The figure for `O=C(COc1ccccc1-c1ccnc(N2CCOCC2)c1)N1CCC(CCc2ccc3c(c2)OCO3)CC1` [Compound 161] is 1 to 10 µM; for `NC(=O)c1cccc(-c2ccccc2OCC(=O)N2CCC(CCc3ccc4c(c3)OCO4)CC2)c1` [Compound 162] it is 1 to 10 µM.
Next, `COc1cccc(-c2ccccc2OCC(=O)N2CCC(CCc3ccc4c(c3)OCO4)CC2)c1` [Compound 163]: 1 to 10 µM.
Next, `O=C(COc1ccccc1-c1ccc(F)cc1)N1CCC(CCc2ccc3c(c2)OCO3)CC1` [Compound 164]: 1 to 10 µM.
The compound `O=C(COc1ccccc1-c1ccccc1Cl)N1CCC(CCc2ccc3c(c2)OCO3)CC1` [Compound 165] returned an IC50 of less than 1 µM.
The figure for `N#Cc1ccc(-c2ccccc2OCC(=O)N2CCC(CCc3ccc4c(c3)OCO4)CC2)cc1` [Compound 166] is less than 1 µM.
The figure for `Cc1cccc(-c2ccccc2OCC(=O)N2CCC(CCc3ccc4c(c3)OCO4)CC2)c1` [Compound 167] is 1 to 10 µM; for `CCN(CC)C(=O)c1ccc(-c2ccccc2OCC(=O)N2CCC(CCc3ccc4c(c3)OCO4)CC2)cc1` [Compound 168] it is 1 to 10 µM.
The figure for `O=C(COc1ccccc1-c1ccc(O)cc1)N1CCC(CCc2ccc3c(c2)OCO3)CC1` [Compound 170] is 1 to 10 µM; for `CN(C)CCCOc1ccc(-c2ccccc2OCC(=O)N2CCC(CCc3ccc4c(c3)OCO4)CC2)cn1` [Compound 171] it is 10 to 50 µM.
`O=C(NCCO)c1cccc(-c2ccccc2OCC(=O)N2CCC(CCc3ccc4c(c3)OCO4)CC2)c1` [Compound 172] had an IC50 of 10 to 50 µM.
`O=C(COc1ccccc1-c1ccc2c(c1)OCCO2)N1CCC(CCc2ccc3c(c2)OCO3)CC1` [Compound 173] had an IC50 of 1 to 10 µM.
The figure for `O=C(COc1ccccc1-c1ccc2nonc2c1)N1CCC(CCc2ccc3c(c2)OCO3)CC1` [Compound 174] is 1 to 10 µM; for `COc1ccc(CCC2(O)CCN(C(=O)COc3ccccc3-c3ccccc3)CC2)cc1` [Compound 175] it is 10 to 50 µM.
Next, `COc1ccc(CCC2(O)CCN(C(=O)COc3ccc(F)cc3-c3ccccc3)CC2)cc1` [Compound 176]: 10 to 50 µM; `O=C(COc1ccccc1-c1ccccc1F)N1CCC(CCc2ccc3c(c2)OCO3)CC1` [Compound 177]: 1 to 10 µM.
`O=C(COc1ccccc1-c1ccc(OC(F)(F)F)cc1)N1CCC(CCc2ccc3c(c2)OCO3)CC1` [Compound 178] returned an IC50 of 1 to 10 µM.
The compound `O=C(COc1ccccc1-c1cccc(OC(F)(F)F)c1)N1CCC(CCc2ccc3c(c2)OCO3)CC1` [Compound 179] showed a half-maximal inhibitory concentration (IC50) of 1 to 10 µM.
The figure for `COc1ccccc1-c1ccccc1OCC(=O)N1CCC(CCc2ccc3c(c2)OCO3)CC1` [Compound 180] is 1 to 10 µM.
Consider `NS(=O)(=O)c1ccc(-c2ccccc2OCC(=O)N2CCC(CCc3ccc4c(c3)OCO4)CC2)cc1` [Compound 181], for which the IC50 fell in the range of 10 to 50 µM.
`O=C(NCCO)c1ccc(-c2ccccc2OCC(=O)N2CCC(CCc3ccc4c(c3)OCO4)CC2)cc1` [Compound 182] gave an IC50 of 10 to 50 µM.
In turn, `NC(=O)c1ccc(-c2ccccc2OCC(=O)N2CCC(CCc3ccc4c(c3)OCO4)CC2)cc1` [Compound 183] had an IC50 of 10 to 50 µM.
The figure for `O=C(COc1ccccc1-c1ccccc1OC(F)(F)F)N1CCC(CCc2ccc3c(c2)OCO3)CC1` [Compound 184] is 10 to 50 µM; for `CCN(CC)C(=O)c1cccc(-c2ccccc2OCC(=O)N2CCC(CCc3ccc4c(c3)OCO4)CC2)c1` [Compound 185] it is 10 to 50 µM; for `CCOc1ccc(-c2ccccc2OCC(=O)N2CCC(CCc3ccc4c(c3)OCO4)CC2)cc1` [Compound 186] it is 1 to 10 µM.
Next, `O=C(COc1ccccc1-c1cccc(F)c1)N1CCC(CCc2ccc3c(c2)OCO3)CC1` [Compound 187]: 1 to 10 µM; `N#Cc1cc(-c2ccccc2OCC(=O)N2CCC(CCc3ccc4c(c3)OCO4)CC2)ccc1F` [Compound 188]: less than 1 µM; `COc1ccc(-c2ccccc2OCC(=O)N2CCC(CCc3ccc4c(c3)OCO4)CC2)cc1` [Compound 189]: 1 to 10 µM.
The compound `O=C(COc1ccccc1-c1ccc(Cl)cc1)N1CCC(CCc2ccc3c(c2)OCO3)CC1` [Compound 190] came in with an IC50 of less than 1 µM.
In the case of `COc1ncccc1-c1ccccc1OCC(=O)N1CCC(CCc2ccc3c(c2)OCO3)CC1` [Compound 191], the IC50 lay in the range of 1 to 10 µM.
The figure for `N#Cc1cccc(-c2ccccc2OCC(=O)N2CCC(CCc3ccc4c(c3)OCO4)CC2)c1` [Compound 192] is 1 to 10 µM; for `O=C(COc1ccccc1-c1ccc(F)nc1)N1CCC(CCc2ccc3c(c2)OCO3)CC1` [Compound 193] it is less than 1 µM; for `O=C(COc1ccccc1-c1cccnc1)N1CCC(CCc2ccc3c(c2)OCO3)CC1` [Compound 194] it is 1 to 10 µM.
Next, `Nc1ccc(-c2ccccc2OCC(=O)N2CCC(CCc3ccc4c(c3)OCO4)CC2)cc1` [Compound 195]: 10 to 50 µM; `O=C(O)c1cncc(-c2ccccc2OCC(=O)N2CCC(CCc3ccc4c(c3)OCO4)CC2)c1` [Compound 196]: 10 to 50 µM; `N#CCc1ccc(-c2ccccc2OCC(=O)N2CCC(CCc3ccc4c(c3)OCO4)CC2)cc1` [Compound 197]: less than 1 µM.
Next, `O=C(c1ccccc1)c1ccc(-c2ccccc2OCC(=O)N2CCC(CCc3ccc4c(c3)OCO4)CC2)cc1` [Compound 198]: less than 1 µM.
Turning to `COc1ccc(-c2ccccc2OCC(=O)N2CCC(CCc3ccc4c(c3)OCO4)CC2)cn1` [Compound 199], the IC50 was less than 1 µM.
Next, `O=C(COc1ccccc1-c1cc(F)c(F)c(F)c1)N1CCC(CCc2ccc3c(c2)OCO3)CC1` [Compound 200]: less than 1 µM; `O=C(COc1ccccc1-c1cccc(Cl)c1)N1CCC(CCc2ccc3c(c2)OCO3)CC1` [Compound 201]: less than 1 µM; `Cc1ccc(-c2ccccc2OCC(=O)N2CCC(CCc3ccc4c(c3)OCO4)CC2)cc1` [Compound 202]: 1 to 10 µM.
The compound `O=C(COc1ccccc1-c1ccc(C(F)(F)F)cc1)N1CCC(CCc2ccc3c(c2)OCO3)CC1` [Compound 203] returned an IC50 of less than 1 µM.
Take `O=C(COc1ccccc1-c1cccc(C(F)(F)F)c1)N1CCC(CCc2ccc3c(c2)OCO3)CC1` [Compound 204]: the IC50 was less than 1 µM.
`C=C(C)c1cccc(-c2ccccc2OCC(=O)N2CCC(CCc3ccc4c(c3)OCO4)CC2)c1` [Compound 205] had an IC50 of 1 to 10 µM.
The figure for `CCOc1cccc(-c2ccccc2OCC(=O)N2CCC(CCc3ccc4c(c3)OCO4)CC2)c1` [Compound 206] is less than 1 µM; for `CCOc1ccccc1-c1ccccc1OCC(=O)N1CCC(CCc2ccc3c(c2)OCO3)CC1` [Compound 207] it is less than 1 µM.
As for `O=C(COc1ccccc1-c1ccccc1)N1CCC(CCc2ccc3c(c2)OCCCO3)CC1` [Compound 208], the IC50 is less than 1 µM.
Next, `CC(Oc1ccccc1-c1ccccc1)C(=O)N1CCC(CCc2ccc3c(c2)OCCCO3)CC1` (stereo not shown) [Compound 209]: less than 1 µM.
`CCCC(Oc1ccccc1-c1ccccc1)C(=O)N1CCC(CCc2ccc3c(c2)OCCCO3)CC1` (stereo not shown) [Compound 210] registered an IC50 of less than 1 µM.
`O=C(COc1ccccc1-c1ccccc1)N1CCC(CCc2ccc3c(c2)OC(F)(F)O3)CC1` [Compound 211] gave an IC50 of 1 to 10 µM.
`CN(C)c1ccc(-c2ccccc2OCC(=O)N2CCC(CCc3ccc4c(c3)OCO4)CC2)cc1` [Compound 213] came in with an IC50 of 10 to 50 µM.
The figure for `O=C(COc1ccccc1-c1ccccc1Oc1ccccc1)N1CCC(CCc2ccc3c(c2)OCO3)CC1` [Compound 216] is less than 1 µM.
For `O=C(COc1ccccc1-c1cccc(OCc2ccccc2)c1)N1CCC(CCc2ccc3c(c2)OCO3)CC1` [Compound 217], the IC50 lay within 1 to 10 µM.
